Results from US12590062B2, “PD-1/PD-L1 inhibitors” (Gilead Sciences, Inc., priority 2017, dated 2026).

Key:
PD-1/PD-L1 interaction = target: T1, PD-1/PD-L1 interaction (Homo sapiens, UniProt Q9NZQ7); experiment: PD-1/PD-L1 NFAT reporter co-culture assay; assay type: cell-based; conditions: Jurkat PD-1 NFAT-luciferase cells co-cultured with aAPC-PD-L1 CHO cells, 6 hrs at 37° C.; read-out: EC50 NFAT Luciferase
T1 construct: expressed in transfected cells; host or cells: CHO cells (aAPC-PD-L1) co-cultured with Jurkat cells overexpressing PD-1 and an NFAT-luciferase reporter
T1 sequence (Q9NZQ7 19-290): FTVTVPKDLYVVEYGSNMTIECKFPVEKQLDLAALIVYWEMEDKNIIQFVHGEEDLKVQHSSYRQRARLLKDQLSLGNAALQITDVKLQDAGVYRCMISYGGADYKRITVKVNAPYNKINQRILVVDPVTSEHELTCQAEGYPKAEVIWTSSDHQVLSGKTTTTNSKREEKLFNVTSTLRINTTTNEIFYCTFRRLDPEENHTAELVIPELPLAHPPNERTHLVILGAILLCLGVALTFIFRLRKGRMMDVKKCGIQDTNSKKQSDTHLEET
Procedure, shortened: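 Restoration of TCR-driven NFAT luciferase signal: 6 h, 37 °C co-culture of PD-1 Jurkat reporter cells (pre-mixed with compound) on overnight-seeded PD-L1/anti-CD3 CHO monolayer. ONE-Glo luminescence; dose-response fitted to four-parameter equation for EC50.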

PD-1/PD-L1 = PD-1/PD-L1 (Homo sapiens, UniProt Q9NZQ7); experiment: PD-1/PD-L1 biochemical protein-protein interaction assay (ALPHA); assay type: binding; conditions: 0.3 nM His tagged PD-L1, 2.5 nM biotinylated Fc-PD-1, 60 minutes at 25° C., read-out: IC50 PD-L1-PD-1 Alpha IC50-mono PD-L1-fcP-D1
Sequence of PD-1/PD-L1 (Q9NZQ7 19-238 limits assumed): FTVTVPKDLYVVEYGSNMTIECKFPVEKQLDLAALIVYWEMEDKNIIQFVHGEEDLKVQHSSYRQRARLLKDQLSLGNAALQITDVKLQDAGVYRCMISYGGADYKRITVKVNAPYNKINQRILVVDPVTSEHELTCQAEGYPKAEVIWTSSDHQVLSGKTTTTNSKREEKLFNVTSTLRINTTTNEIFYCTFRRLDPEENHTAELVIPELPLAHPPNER
Procedure, shortened: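 Extracellular-domain binding of His-tagged PD-L1 (0.3 nM final) to biotinylated Fc-PD-1 (2.5 nM final) was measured by ALPHA in 25 mM Hepes pH 7.4, 150 mM NaCl, 3.4 mM EDTA, 0.005% Tween 20, 0.01% BSA. After 60 min at 25° C, anti-His acceptor and streptavidin donor beads were added; IC50 from four-parameter fits.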

Cc1c(COc2cc(OCc3cncc(C#N)c3)c(CN[C@@](C)(CO)C(=O)O)cc2Cl)cccc1-c1cccc(-c2ccc(S(N)(=O)=O)cc2)c1C [Example 564]
EC50 (PD-1/PD-L1 interaction): 80 nM
IC50 (PD-1/PD-L1): 0.293 nM

Cc1nc(OCc2cccc(-c3cccc(COc4ccc(CNC[C@@H](O)CC(=O)O)c(C)n4)c3C)c2C)ccc1CNC[C@@H](O)CC(=O)O [Example 156, (3S,3′S)-4,4′-((((((2,2′-dimethyl-[1,1′-biphenyl]-3,3′-diyl)bis(methylene))bis(oxy))bis(2-methylpyridine-6,3-diyl))bis(methylene))bis(azanediyl))bis(3-hydroxybutanoic acid)]
EC50 (PD-1/PD-L1 interaction): 34200 nM
IC50 (PD-1/PD-L1): 2.3 nM

COc1ccc(COc2nc(OCc3cccc(-c4cccc(COc5nc(OCc6ccc(OC)nc6)c(CNC[C@@H](O)CC(=O)O)cc5Br)c4C)c3C)c(Br)cc2CNC[C@@H](O)CC(=O)O)cn1 [Example 253, (3S,3′S)-4,4′-((((((2,2′-dimethyl-[1,1′-biphenyl]-3,3′-diyl)bis(methylene))bis(oxy))bis(5-bromo-2-((6-methoxypyridin-3-yl)methoxy)pyridine-6,3-diyl))bis(methylene))bis(azanediyl))bis(3-hydroxybutanoic acid)]
EC50 (PD-1/PD-L1 interaction): 304 nM
IC50 (PD-1/PD-L1): 4.6 nM

COc1nc(OCc2cccc(-c3cccc(COc4ccc(CNCCO)c(OC)n4)c3C)c2C)ccc1CNCCO [Example 21, 2,2′-((((((2,2′-dimethyl-[1,1′-biphenyl]-3,3′-diyl)bis(methylene))bis(oxy))bis(2-methoxypyridine-6,3-diyl))bis(methylene))bis(azanediyl))bis(ethan-1-ol)]
EC50 (PD-1/PD-L1 interaction): 1370 nM
IC50 (PD-1/PD-L1): 17 nM

COc1nc(OCc2cccc(-c3cccc(COc4ccc(CNCCO)c(OC)n4)c3Cl)c2Cl)ccc1CNCCO [Example 186, 2,2′-((((((2,2′-Dichloro-[1,1′-biphenyl]-3,3′-diyl)bis(methylene))bis(oxy))bis(2-methoxypyridine-6,3-diyl))bis(methylene))bis(azanediyl))bis(ethan-1-ol)]
EC50 (PD-1/PD-L1 interaction): 1510 nM
IC50 (PD-1/PD-L1): 18.8 nM

Cc1c(-c2ccc(OCCNC[C@@H](O)CC(=O)O)cc2)cccc1-c1cccc2c1CC[C@@H]2Oc1nc(OCc2cc(C#N)cc(C#N)c2)c(CNC[C@@H](O)CC(=O)O)cc1Br [Example 753]
EC50 (PD-1/PD-L1 interaction): 35 nM
IC50 (PD-1/PD-L1): 0.064 nM

Cc1c(COc2cc(OCc3cncc(C#N)c3)c(CN[C@@](C)(CO)C(=O)O)cc2Cl)cccc1-c1cccc(-c2ccc3c(c2)OCC3N(C)C)c1C (stereo partly drawn) [Example 376, (2S)-2-((5-chloro-2-((5-cyanopyridin-3-yl)methoxy)-4-((3′-(3-(dimethylamino)-2,3-dihydrobenzofuran-6-yl)-2,2′-dimethyl-[1,1′-biphenyl]-3-yl)methoxy)benzyl)amino)-3-hydroxy-2-methylpropanoic acid]
EC50 (PD-1/PD-L1 interaction): 770 nM
IC50 (PD-1/PD-L1): 0.346 nM

COc1nc(OCc2cccc(-c3cccc(COc4ccc(CNCC(O)C(F)(F)C(=O)O)c(OC)n4)c3C)c2C)ccc1CNCC(O)C(F)(F)C(=O)O (centres unmarked) [Example 84, 4,4′-((((((2,2′-dimethyl-[1,1′-biphenyl]-3,3′-diyl)bis(methylene))bis(oxy))bis(2-methoxypyridine-6,3-diyl))bis(methylene))bis(azanediyl))bis(2,2-difluoro-3-hydroxybutanoic acid)]
EC50 (PD-1/PD-L1 interaction): 10000 nM
IC50 (PD-1/PD-L1): 0.9 nM

Cc1c(COc2nc(OCC(F)(F)F)c(CNC[C@@H](O)CC(=O)O)cc2Br)cccc1-c1cccc(COc2nc(OCC(F)(F)F)c(CNC[C@@H](O)CC(=O)O)cc2Br)c1C [Example 154, (3S,3′S)-4,4′-((((((2,2′-dimethyl-[1,1′-biphenyl]-3,3′-diyl)bis(methylene))bis(oxy))bis(5-bromo-2-(2,2,2-trifluoroethoxy)pyridine-6,3-diyl))bis(methylene))bis(azanediyl))bis(3-hydroxybutanoic acid)]
EC50 (PD-1/PD-L1 interaction): ≥ 50000 nM
IC50 (PD-1/PD-L1): 3.8 nM

COc1nc(OCc2cccc(-c3cccc(COc4ccc(CNC[C@@H](C)O)c(OC)n4)c3C)c2C)ccc1CNC[C@@H](C)O [Example 24, (2R,2′R)-1,1′-((((((2,2′-dimethyl-[1,1′-biphenyl]-3,3′-diyl)bis(methylene))bis(oxy))bis(2-methoxypyridine-6,3-diyl))bis(methylene))bis(azanediyl))bis(propan-2-ol)]
EC50 (PD-1/PD-L1 interaction): 1890 nM
IC50 (PD-1/PD-L1): 41.7 nM

COc1cc(OCc2cccc(-c3cccc(COc4nc(OC)c(CNC5(C(=O)O)CCC5)cc4Cl)c3C)c2C)c(Cl)cc1CNC1(C(=O)O)CCC1 [Example 486]
EC50 (PD-1/PD-L1 interaction): 112 nM
IC50 (PD-1/PD-L1): 0.146 nM

Cc1c(COc2cc(OCCN3CCOCC3)c(CNCCO)cc2Cl)cccc1-c1cccc(COc2cc(OCCN3CCOCC3)c(CNCCO)cc2Cl)c1C [Example 28, 2,2′-((((((2,2′-dimethyl-[1,1′-biphenyl]-3,3′-diyl)bis(methylene))bis(oxy))bis(5-chloro-2-(2-morpholinoethoxy)-4,1-phenylene))bis(methylene))bis(azanediyl))bis(ethan-1-ol)]
EC50 (PD-1/PD-L1 interaction): 663 nM
IC50 (PD-1/PD-L1): 12.7 nM

Cc1c(COc2nc(OCc3cnnn3Cc3ccccc3)c(CNC[C@@H](O)CC(=O)O)cc2Br)cccc1-c1cccc(COc2nc(OCc3cnnn3Cc3ccccc3)c(CNC[C@@H](O)CC(=O)O)cc2Br)c1C [Example 139, (3S,3′S)-4,4′-((((((2,2′-dimethyl-[1,1′-biphenyl]-3,3′-diyl)bis(methylene))bis(oxy))bis(2-((1-benzyl-1H-1,2,3-triazol-5-yl)methoxy)-5-bromopyridine-6,3-diyl))bis(methylene))bis(azanediyl))bis(3-hydroxybutanoic acid)]
EC50 (PD-1/PD-L1 interaction): 23900 nM
IC50 (PD-1/PD-L1): 5.1 nM

COC1CN(C2CCc3cc(-c4cccc(-c5cccc(COc6cc(OCc7cncc(C#N)c7)c(CN[C@@](C)(CO)C(=O)O)cc6Cl)c5C)c4C)ccc32)C1 (some centres unmarked) [Example 585]
EC50 (PD-1/PD-L1 interaction): 182 nM
IC50 (PD-1/PD-L1): 0.098 nM

Cc1c(COc2ccc(CNCCO)cc2Cl)cccc1-c1cccc(COc2cc(OCc3cncc(C#N)c3)c(CNCCO)cc2Cl)c1C [Example 71, 5-((4-chloro-5-((3′-((2-chloro-4-(((2-hydroxyethyl)amino)methyl)phenoxy)methyl)-2,2′-dimethyl-[1,1′-biphenyl]-3-yl)methoxy)-2-(((2-hydroxyethyl)amino)methyl)phenoxy)methyl)nicotinonitrile]
EC50 (PD-1/PD-L1 interaction): 1030 nM
IC50 (PD-1/PD-L1): 26.5 nM

C=Cc1cc(CNCCO)c(OCc2cncc(C#N)c2)cc1OCc1cccc(-c2cccc(COc3cc(OCc4cncc(C#N)c4)c(CNCCO)cc3C=C)c2C)c1C [Example 36, 5,5′-((((((2,2′-dimethyl-[1,1′-biphenyl]-3,3′-diyl)bis(methylene))bis(oxy))bis(6-(((2-hydroxyethyl)amino)methyl)-4-vinyl-3,1-phenylene))bis(oxy))bis(methylene))dinicotinonitrile]
EC50 (PD-1/PD-L1 interaction): 1070 nM
IC50 (PD-1/PD-L1): 21.6 nM

Cc1c(COc2nc(OCc3cc(C#N)cc(C#N)c3)c(CNC[C@@H](O)CC(=O)O)cc2Br)cccc1-c1cccc(-c2ccc(OCCNC[C@@H](O)CC(=O)O)cc2)c1C [Example 515]
EC50 (PD-1/PD-L1 interaction): 95 nM
IC50 (PD-1/PD-L1): 0.203 nM

Cc1c(COc2cc(OCc3cncc(C#N)c3)c(CNC[C@@H](O)CC(=O)O)cc2Br)cccc1-c1cccc(COc2cc(OCc3cncc(C#N)c3)c(CN3C[C@@H](O)CC3=O)cc2Br)c1C [Example 38, (S)-4-((5-bromo-4-((3′-((2-bromo-5-((5-cyanopyridin-3-yl)methoxy)-4-(((S)-4-hydroxy-2-oxopyrrolidin-1-yl)methyl)phenoxy)methyl)-2,2′-dimethyl-[1,1′-biphenyl]-3-yl)methoxy)-2-((5-cyanopyridin-3-yl)methoxy)benzyl)amino)-3-hydroxybutanoic acid]
EC50 (PD-1/PD-L1 interaction): 2670 nM
IC50 (PD-1/PD-L1): 2.8 nM

CS(=O)(=O)c1cncc(COc2nc(O[C@H]3CCc4c(-c5cccc6c5CC[C@@H]6Oc5nc(OCc6cncc(S(C)(=O)=O)c6)c(CN6C[C@@H](O)CC6=O)cc5Cl)cccc43)c(Cl)cc2CNC[C@@H](O)CC(=O)O)c1 [Example 693]
EC50 (PD-1/PD-L1 interaction): 120 nM
IC50 (PD-1/PD-L1): 0.585 nM

Cc1c(COc2ccc(CNCCO)cc2C(F)(F)F)cccc1-c1cccc(COc2ccc(CNCCO)cc2C(F)(F)F)c1C [Example 223, 2,2′-((((((2,2′-dimethyl-[1,1′-biphenyl]-3,3′-diyl)bis(methylene))bis(oxy))bis(3-(trifluoromethyl)-4,1-phenylene))bis(methylene))bis(azanediyl))bis(ethan-1-ol)]
EC50 (PD-1/PD-L1 interaction): ≥ 50000 nM
IC50 (PD-1/PD-L1): 34.6 nM

Cc1c(COc2cc(OCc3cncc(C#N)c3)c(CNCC[C@H](O)C(=O)O)cc2Cl)cccc1-c1cccc(COc2cc(OCc3cncc(C#N)c3)c(CNCC[C@H](O)C(=O)O)cc2Cl)c1C [Example 215, (2S,2′S)-4,4′-((((((2,2′-dimethyl-[1,1′-biphenyl]-3,3′-diyl)bis(methylene))bis(oxy))bis(5-chloro-2-((5-cyanopyridin-3-yl)methoxy)-4,1-phenylene))bis(methylene))bis(azanediyl))bis(2-hydroxybutanoic acid)]
EC50 (PD-1/PD-L1 interaction): 413 nM
IC50 (PD-1/PD-L1): 1.26 nM

Cc1c(COc2cc(OCc3cncc(C#N)c3)c(CNC[C@@H](O)CC(=O)O)cc2Cl)cccc1-c1cccc(-c2ccc(OCCNC[C@@H](O)CC(=O)O)cc2Cl)c1C [Example 315, (S)-4-((4-((4″-(2-(((S)-3-carboxy-2-hydroxypropyl)amino)ethoxy)-2″-chloro-2,2′-dimethyl-[1,1′:3′,1″-terphenyl]-3-yl)methoxy)-5-chloro-2-((5-cyanopyridin-3-yl)methoxy)benzyl)amino)-3-hydroxybutanoic acid]
EC50 (PD-1/PD-L1 interaction): 1250 nM
IC50 (PD-1/PD-L1): 0.242 nM
